According to US12435046B2, “Alkynyl quinazoline compounds” (Black Diamond Therapeutics, Inc., priority 2019, dated 2025):

Tests used:
Type in all cases: cell-based
Conditions in all cases: Table A; BaF3 cells, 3 days
HER2 YVMA = molecular target: T1, HER2 YVMA (Homo sapiens, UniProt P04626, INS775YVMA); assay: BaF3 cell proliferation assay (CellTiterGlo), HER2 YVMA
T1 construct: expressed in transfected cells; host or cells: BaF3 (murine pro-B) cells

EGFR wt = molecular target: T2, EGFR wt (Homo sapiens, UniProt P00533); assay: BaF3 cell proliferation assay (CellTiterGlo), EGFR wt
T2 construct: expressed in transfected cells; host or cells: BaF3 (murine pro-B) cells, retroviral transduction with pMXs-IRES-Blasticidin
Protocol: (§1) Retroviral Production: EGFR mutants were subcloned into pMXs-IRES-Blasticidin (RTV-016, Cell Biolabs, San Diego, CA). Retroviral expression vector retrovirus was produced by transient transfection of HEK 293T cells with the retroviral EGFR mutant expression vector pMXs-IRES-Blasticidin (RTV-016, Cell Biolabs), pCMV-Gag-Pol vector and pCMV-VSV-G-Envelope vector. Briefly, HEK 293T/17 cells were plated in 100 mm collagen coated plate (354450, Corning Life Sciences, Tewksbury, MA) (4×10^5 per plate) and incubated overnight. The next day, retroviral plasmids (3 ng of EGFR mutant, 1.0 ng of pCMV-Gag-Pol and 0.5 ng pCMV-VSV-G) were mixed in 500 n1 of Optimem (31985, Life Technologies). The mixture was incubated at room temperature for 5 min and then added to Optimem containing transfection reagent Lipofectamine (11668, Invitrogen) and incubated for 20 minutes. Mixture was then added dropwise to HEK 293T cells. The next day the medium was replaced with fresh culture medium and retrovirus was harvested @ 24 and 48 hrs.
(§2) Generation of EGFR mutant stable cell lines: BaF3 cells (1.5E5 cells) were infected with 1 ml of viral supernatant supplemented with 8 ng/ml polybrene by centrifuging for 30 min at 1000 rpm. Cells were placed in a 37° C. incubator overnight. Cells were then spun for 5 minutes to pellet the cells. Supernatant was removed and cells re-infected a fresh 1 ml of viral supernatant supplemented with 8 ng/ml polybrene by centrifuging for 30 min at 1000 rpm. Cells were placed in 37° C. incubator overnight. Cells were then maintained in RPMI containing 10% Heat Inactivated FBS, 2% L-glutamine containing 10 ng/ml IL-3. After 48 hours cells were selected for retroviral infection in 10 […] for one week. Blasticidin resistant populations were washed twice in phosphate buffered saline before plating in media lacking IL-3 to select for IL-3 independent growth.
(§3) Assay for cell proliferation: BaF3 cell lines were resuspended at 1.3E5 c/ml in RPMI containing 10% Heat Inactivated FBS, 2% L-glutamine and 1% Pen/Strep and dispensed in triplicate (17.5E4 c/well) into 96 well plates. To determine the effect of drug on cell proliferation, cells incubated for 3 days in the presence of vehicle control or test drug at varying concentrations. Inhibition of cell growth was determined by luminescent quantification of intracellular ATP content using CellTiterGlo (Promega), according to the protocol provided by the manufacturer. Comparison of cell number on day 0 versus 72 hours post drug treatment was used to plot dose-response curves. The number of viable cells was determined and normalized to vehicle-treated controls. Inhibition of proliferation, relative to vehicle-treated controls was expressed as a fraction of 1 and graphed using PRISM® software (Graphpad Software, San Diego, CA). EC50 values were determined with the same application.

HER2 S310F = molecular target: T3, HER2 S310F (Homo sapiens, UniProt P04626, S310F); assay: BaF3 cell proliferation assay (CellTiterGlo), HER2 S310F
T3 construct: expressed in transfected cells; host or cells: BaF3 (murine pro-B) cells

EGFR V3 = molecular target: T4, EGFR V3 (Homo sapiens, UniProt P00533, DELINS30-297G); assay: BaF3 cell proliferation assay (CellTiterGlo), EGFR V3
T4 construct: expressed in transfected cells; host or cells: BaF3 (murine pro-B) cells, retroviral transduction with pMXs-IRES-Blasticidin
Protocol: as §1, §2, §3

T1 sequence (P04626 with tags, fused parts or gaps INS775YVMA): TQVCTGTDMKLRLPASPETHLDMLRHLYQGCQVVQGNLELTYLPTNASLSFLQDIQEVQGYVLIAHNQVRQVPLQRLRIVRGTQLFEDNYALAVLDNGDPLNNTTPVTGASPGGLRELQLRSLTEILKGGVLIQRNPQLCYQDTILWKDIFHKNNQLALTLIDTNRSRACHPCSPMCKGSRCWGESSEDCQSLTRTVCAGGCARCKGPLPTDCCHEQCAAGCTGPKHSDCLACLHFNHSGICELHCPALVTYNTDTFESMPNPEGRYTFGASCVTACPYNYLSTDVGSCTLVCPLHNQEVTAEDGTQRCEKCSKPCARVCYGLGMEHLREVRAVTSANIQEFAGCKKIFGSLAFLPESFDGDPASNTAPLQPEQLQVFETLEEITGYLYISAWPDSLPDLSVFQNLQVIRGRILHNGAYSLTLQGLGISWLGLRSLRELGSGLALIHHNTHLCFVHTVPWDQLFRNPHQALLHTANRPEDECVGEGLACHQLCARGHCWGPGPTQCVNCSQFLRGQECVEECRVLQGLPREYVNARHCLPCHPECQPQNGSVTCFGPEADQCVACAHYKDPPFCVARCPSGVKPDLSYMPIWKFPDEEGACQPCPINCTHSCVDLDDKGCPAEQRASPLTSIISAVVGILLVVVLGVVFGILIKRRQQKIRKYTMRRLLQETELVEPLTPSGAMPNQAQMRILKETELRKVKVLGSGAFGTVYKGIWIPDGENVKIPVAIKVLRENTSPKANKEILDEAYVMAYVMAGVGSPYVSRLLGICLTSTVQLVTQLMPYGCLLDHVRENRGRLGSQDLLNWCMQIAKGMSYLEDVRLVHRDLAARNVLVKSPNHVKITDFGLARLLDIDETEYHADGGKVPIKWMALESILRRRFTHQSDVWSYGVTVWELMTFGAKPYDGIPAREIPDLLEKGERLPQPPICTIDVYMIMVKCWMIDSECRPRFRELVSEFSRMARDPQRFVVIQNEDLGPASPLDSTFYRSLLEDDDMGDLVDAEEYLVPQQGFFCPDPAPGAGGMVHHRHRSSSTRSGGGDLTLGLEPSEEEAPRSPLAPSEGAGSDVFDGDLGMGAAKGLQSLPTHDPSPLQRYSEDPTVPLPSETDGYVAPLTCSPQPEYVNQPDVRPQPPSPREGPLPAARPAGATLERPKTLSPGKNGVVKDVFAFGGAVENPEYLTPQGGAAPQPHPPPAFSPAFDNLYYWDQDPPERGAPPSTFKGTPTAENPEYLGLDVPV
T4 sequence (P00533 with tags, fused parts or gaps DELINS30-297G): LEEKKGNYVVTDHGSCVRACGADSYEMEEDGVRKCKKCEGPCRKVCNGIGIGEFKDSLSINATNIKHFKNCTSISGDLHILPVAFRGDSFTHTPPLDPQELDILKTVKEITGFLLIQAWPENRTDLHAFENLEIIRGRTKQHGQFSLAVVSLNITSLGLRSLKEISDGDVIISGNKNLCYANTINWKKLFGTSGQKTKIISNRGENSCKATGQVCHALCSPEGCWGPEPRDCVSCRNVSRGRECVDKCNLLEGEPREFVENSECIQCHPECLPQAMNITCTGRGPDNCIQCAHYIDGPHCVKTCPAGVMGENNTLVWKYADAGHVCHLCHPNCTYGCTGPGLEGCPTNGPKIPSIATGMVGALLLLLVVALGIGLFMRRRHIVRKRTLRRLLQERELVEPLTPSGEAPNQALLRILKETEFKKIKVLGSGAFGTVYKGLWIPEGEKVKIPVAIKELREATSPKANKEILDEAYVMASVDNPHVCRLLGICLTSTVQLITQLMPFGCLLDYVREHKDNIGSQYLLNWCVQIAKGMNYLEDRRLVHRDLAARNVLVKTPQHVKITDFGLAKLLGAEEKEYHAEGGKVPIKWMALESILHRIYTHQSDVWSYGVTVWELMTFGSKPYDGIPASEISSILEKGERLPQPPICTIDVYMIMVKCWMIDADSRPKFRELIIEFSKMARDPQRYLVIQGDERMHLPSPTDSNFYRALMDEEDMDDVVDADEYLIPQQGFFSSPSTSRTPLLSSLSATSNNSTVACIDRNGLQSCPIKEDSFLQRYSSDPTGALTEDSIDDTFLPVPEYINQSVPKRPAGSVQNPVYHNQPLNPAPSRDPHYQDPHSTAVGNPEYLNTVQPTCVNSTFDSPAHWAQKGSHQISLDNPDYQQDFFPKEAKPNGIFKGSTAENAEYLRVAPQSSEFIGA
T3 sequence (P04626 23-1255 S310F): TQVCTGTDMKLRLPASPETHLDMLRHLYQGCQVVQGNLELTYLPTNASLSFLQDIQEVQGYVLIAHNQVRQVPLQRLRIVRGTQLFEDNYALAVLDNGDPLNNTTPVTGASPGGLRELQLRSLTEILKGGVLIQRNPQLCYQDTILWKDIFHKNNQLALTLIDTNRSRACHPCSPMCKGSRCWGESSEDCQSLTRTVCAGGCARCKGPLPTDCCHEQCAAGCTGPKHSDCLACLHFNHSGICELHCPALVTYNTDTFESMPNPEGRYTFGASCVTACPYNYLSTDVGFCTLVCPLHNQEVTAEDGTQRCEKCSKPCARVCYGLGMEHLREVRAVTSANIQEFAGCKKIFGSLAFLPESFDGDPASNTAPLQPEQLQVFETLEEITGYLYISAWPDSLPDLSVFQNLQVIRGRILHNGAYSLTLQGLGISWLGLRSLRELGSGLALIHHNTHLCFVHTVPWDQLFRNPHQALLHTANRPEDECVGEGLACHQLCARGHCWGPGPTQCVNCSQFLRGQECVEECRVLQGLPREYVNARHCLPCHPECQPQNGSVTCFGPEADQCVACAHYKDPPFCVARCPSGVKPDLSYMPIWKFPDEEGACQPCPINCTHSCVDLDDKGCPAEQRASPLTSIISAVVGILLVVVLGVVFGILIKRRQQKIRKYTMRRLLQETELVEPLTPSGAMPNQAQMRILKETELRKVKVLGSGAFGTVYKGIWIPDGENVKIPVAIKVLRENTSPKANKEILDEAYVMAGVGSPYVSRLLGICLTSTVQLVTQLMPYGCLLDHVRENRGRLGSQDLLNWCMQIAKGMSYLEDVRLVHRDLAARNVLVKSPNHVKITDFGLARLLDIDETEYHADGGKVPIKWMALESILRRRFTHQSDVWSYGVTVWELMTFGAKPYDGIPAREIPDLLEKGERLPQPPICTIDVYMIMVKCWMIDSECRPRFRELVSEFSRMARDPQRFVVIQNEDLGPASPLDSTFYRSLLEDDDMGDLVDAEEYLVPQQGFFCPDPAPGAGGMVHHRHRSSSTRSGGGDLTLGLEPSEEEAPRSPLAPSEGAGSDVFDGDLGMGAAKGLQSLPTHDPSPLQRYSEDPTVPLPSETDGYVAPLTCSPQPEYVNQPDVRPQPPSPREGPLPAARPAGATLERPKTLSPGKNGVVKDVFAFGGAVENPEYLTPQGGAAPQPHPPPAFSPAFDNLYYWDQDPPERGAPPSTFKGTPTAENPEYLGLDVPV
T2 sequence (P00533 25-1210): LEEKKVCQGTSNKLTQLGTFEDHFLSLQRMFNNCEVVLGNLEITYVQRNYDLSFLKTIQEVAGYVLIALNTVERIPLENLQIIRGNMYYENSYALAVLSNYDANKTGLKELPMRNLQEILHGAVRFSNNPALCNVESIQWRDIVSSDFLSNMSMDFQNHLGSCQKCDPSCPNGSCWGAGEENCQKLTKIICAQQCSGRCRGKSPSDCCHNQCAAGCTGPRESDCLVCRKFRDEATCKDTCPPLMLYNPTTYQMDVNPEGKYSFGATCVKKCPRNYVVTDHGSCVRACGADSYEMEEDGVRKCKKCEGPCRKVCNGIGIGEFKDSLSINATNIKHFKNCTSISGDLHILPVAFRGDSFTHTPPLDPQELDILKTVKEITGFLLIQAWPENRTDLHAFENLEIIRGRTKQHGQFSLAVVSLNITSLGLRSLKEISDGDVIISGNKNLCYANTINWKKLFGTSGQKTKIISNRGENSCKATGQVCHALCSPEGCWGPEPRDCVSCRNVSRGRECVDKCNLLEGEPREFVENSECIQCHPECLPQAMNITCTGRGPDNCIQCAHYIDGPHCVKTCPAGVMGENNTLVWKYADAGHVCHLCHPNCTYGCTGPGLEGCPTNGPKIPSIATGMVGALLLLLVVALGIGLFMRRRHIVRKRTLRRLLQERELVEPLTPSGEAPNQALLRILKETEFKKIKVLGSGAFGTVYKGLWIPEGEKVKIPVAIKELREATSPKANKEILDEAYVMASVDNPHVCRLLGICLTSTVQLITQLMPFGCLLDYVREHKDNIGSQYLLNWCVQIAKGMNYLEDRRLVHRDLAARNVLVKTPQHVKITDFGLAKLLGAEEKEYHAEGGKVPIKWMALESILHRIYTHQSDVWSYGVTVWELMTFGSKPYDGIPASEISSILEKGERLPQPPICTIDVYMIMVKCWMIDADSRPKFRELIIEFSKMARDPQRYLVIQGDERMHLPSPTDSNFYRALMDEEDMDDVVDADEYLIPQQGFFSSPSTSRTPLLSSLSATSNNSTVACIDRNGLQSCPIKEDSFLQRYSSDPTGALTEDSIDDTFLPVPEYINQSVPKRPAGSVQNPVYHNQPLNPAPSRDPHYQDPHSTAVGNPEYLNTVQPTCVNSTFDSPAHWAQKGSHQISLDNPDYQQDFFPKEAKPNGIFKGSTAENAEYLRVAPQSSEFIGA

IC50 (HER2 YVMA) | IC50 (EGFR wt) | IC50 (HER2 S310F) | IC50 (EGFR V3) | SMILES
100 to 500 nM | 50 to 100 nM | 100 to 500 nM | ≤ 50 nM | C=CC(=O)Nc1cc2c(Nc3cccc(Cl)c3F)ncnc2cc1C#CC1(C)CCN(C)CC1 [Compound 4, N-(4-((3-chloro-2-fluorophenyl)amino)-7-((1,4-dimethylpiperidin-4-yl)ethynyl)quinazolin-6-yl)acrylamide]
100 to 500 nM | ≤ 50 nM | 100 to 500 nM | ≤ 50 nM | C=C(F)C(=O)Nc1cc2c(Nc3cccc(Cl)c3F)ncnc2cc1C#CC1(C)CCN(C)C1 (centres unmarked) [Compound 5, N-(4-((3-chloro-2-fluorophenyl)amino)-7-((1,3-dimethylpyrrolidin-3-yl)ethynyl)quinazolin-6-yl)-2-fluoroacrylamide]
> 500 nM | > 500 nM | 100 to 500 nM | 50 to 100 nM | C=CC(=O)Nc1cc2c(Nc3cccc(Cl)c3F)ncnc2cc1C#C[C@@]1(C)CCCN1C [Compound 6, (R)—N-(4-((3-chloro-2-fluorophenyl)amino)-7-((1,2-dimethylpyrrolidin-2-yl)-ethynyl)quinazolin-6-yl)acrylamide]
100 to 500 nM | ≤ 50 nM | 50 to 100 nM | ≤ 50 nM | C=CC(=O)Nc1cc2c(Nc3ccc(Cl)c(Cl)c3F)ncnc2cc1C#CC1(C)CCN(C)C1 (centres unmarked) [Compound 7, N-(4-((3,4-dichloro-2-fluorophenyl)amino)-7-((1,3-dimethylpyrrolidin-3-yl)ethynyl)quinazolin-6-yl)acrylamide]
100 to 500 nM | ≤ 50 nM | 50 to 100 nM | ≤ 50 nM | C=CC(=O)Nc1cc2c(Nc3ccc(F)c(Cl)c3F)ncnc2cc1C#CC1(C)CCN(C)C1 (centres unmarked) [Compound 8, N-(4-((3-chloro-2,4-difluorophenyl)amino)-7-((1,3-dimethylpyrrolidin-3-yl)ethynyl)-quinazolin-6-yl)acrylamide]
> 500 nM | 100 to 500 nM | 100 to 500 nM | ≤ 50 nM | C=CC(=O)Nc1cc2c(Nc3cccc(Cl)c3F)ncnc2cc1C#CC12CCC(CC1)N2C [Compound 10, N-(4-((3-chloro-2-fluorophenyl)amino)-7-((7-methyl-7-azabicyclo[2.2.1]heptan-1-yl)ethynyl)quinazolin-6-yl)acrylamide]
100 to 500 nM | 100 to 500 nM | 100 to 500 nM | ≤ 50 nM | C=CC(=O)Nc1cc2c(Nc3cccc(Cl)c3F)ncnc2cc1C#CC1(C)CN(C)C1 [Compound 11, N-(4-((3-chloro-2-fluorophenyl)amino)-7-((1,3-dimethylazetidin-3-yl)ethynyl)quinazolin-6-yl) acrylamide]
≤ 50 nM | 100 to 500 nM | ≤ 50 nM | ≤ 50 nM | C=CC(=O)Nc1cc2c(Nc3ccc(OCc4ccccn4)c(Cl)c3)ncnc2cc1C#C[C@]1(C)CCN(C)C1 [Compound 13, (S)—N-(4-((3-chloro-4-(pyridin-2-ylmethoxy)phenyl)amino)-7-((1,3-dimethylpyrrolidin-3-yl)ethynyl)quinazolin-6-yl)acrylamide]
50 to 100 nM | > 500 nM | ≤ 50 nM | ≤ 50 nM | C=CC(=O)Nc1cc2c(Nc3ccc(OCc4ccccn4)c(Cl)c3)ncnc2cc1C#C[C@@]1(C)CCN(C)C1 [Compound 14, (R)—N-(4-((3-chloro-4-(pyridin-2-ylmethoxy)phenyl)amino)-7-((1,3-dimethylpyrrolidin-3-yl)ethynyl)quinazolin-6-yl)acrylamide]
100 to 500 nM | > 500 nM | ≤ 50 nM | 50 to 100 nM | C=CC(=O)Nc1cc2c(Nc3ccc(OCc4ccccn4)c(Cl)c3)ncnc2cc1C#C[C@@]1(C)CCCN1C [Compound 16, (R)—N-(4-((3-chloro-4-(pyridin-2-ylmethoxy)phenyl)amino)-7-((1,2-dimethylpyrrolidin-2-yl)ethynyl)quinazolin-6-yl)acrylamide]
> 500 nM | 100 to 500 nM | 50 to 100 nM | > 500 nM | CN1C[C@H]2C[C@@]2(C#Cc2cc3ncnc(Nc4cccc(Cl)c4F)c3cc2NC(=O)/C=C/CN2CCCC(C(=O)O)C2)C1 (stereo partly drawn) [Compound 19, 1-[(E)-4-[[4-(3-chloro-2-fluoro-anilino)-7-[2-[(1R,5S)-3-methyl-3-azabicyclo[3.1.0]hexan-1-yl]ethynyl]quinazolin-6-yl]amino]-4-oxo-but-2-enyl]piperidine-3-carboxylic acid]
> 500 nM | ≤ 50 nM | 100 to 500 nM | 100 to 500 nM | COC/C=C/C(=O)Nc1cc2c(Nc3cccc(Cl)c3F)ncnc2cc1C#C[C@@]12C[C@@H]1CN(C)C2 [Compound 21, (E)-N-(4-((3-chloro-2-fluorophenyl)amino)-7-(((1R,5S)-3-methyl-3-azabicyclo[3.1.0]hexan-1-yl)ethynyl)quinazolin-6-yl)-4-methoxybut-2-enamide]
– | > 500 nM | 100 to 500 nM | 50 to 100 nM | CN(C)C/C=C/C(=O)Nc1cc2c(Nc3cccc(Cl)c3F)ncnc2cc1C#C[C@@]1(C)CCN(C)C1 [Compound 24, (R,E)-N-(4-((3-chloro-2-fluorophenyl)amino)-7-((1,3-dimethylpyrrolidin-3-yl)ethynyl)quinazolin-6-yl)-4-(dimethylamino)but-2-enamide]
> 500 nM | 100 to 500 nM | > 500 nM | > 500 nM | C=C(C)C(=O)Nc1cc2c(Nc3cccc(Cl)c3F)ncnc2cc1C#C[C@@]1(C)CCN(C)C1 [Compound 25, (R)—N-(4-((3-chloro-2-fluorophenyl)amino)-7-((1,3-dimethylpyrrolidin-3-yl)ethynyl)quinazolin-6-yl)methacrylamide]
100 to 500 nM | 50 to 100 nM | 50 to 100 nM | ≤ 50 nM | C=C(CO)C(=O)Nc1cc2c(Nc3cccc(Cl)c3F)ncnc2cc1C#C[C@@]12C[C@@H]1CN(C)C2 [Compound 26, N-[4-(3-chloro-2-fluoro-anilino)-7-[2-[(1R,5S)-3-methyl-3-azabicyclo[3.1.0]hexan-1-yl]ethynyl]quinazolin-6-yl]-2-(hydroxymethyl)prop-2-enamide]
> 500 nM | 100 to 500 nM | 100 to 500 nM | ≤ 50 nM | C=CC(=O)Nc1cc2c(Nc3cccc(Cl)c3F)ncnc2cc1C#C[C@@]1(F)CCN(C)C1 [Compound 45, N-{4-[(3-chloro-2-fluorophenyl)amino]-7-{2-[(3S)-3-fluoro-1-methylpyrrolidin-3-yl]ethynyl}quinazolin-6-yl}prop-2-enamide]
> 500 nM | 100 to 500 nM | 100 to 500 nM | ≤ 50 nM | C=CC(=O)Nc1cc2c(Nc3cccc(Cl)c3F)ncnc2cc1C#C[C@]1(F)CCN(C)C1 [Compound 46, N-{4-[(3-chloro-2-fluorophenyl)amino]-7-{2-[(3R)-3-fluoro-1-methyl-pyrrolidin-3-yl]ethynyl}quinazolin-6-yl}prop-2-enamide]
> 500 nM | – | > 500 nM | 100 to 500 nM | CN1CC[C@](C)(C#Cc2cc3ncnc(Nc4cccc(Cl)c4F)c3cc2NC(=O)/C=C/CN2CCOCC2)C1 [Compound No. 81, (R,E)-N-(4-((3-chloro-2-fluorophenyl)amino)-7-((1,3-dimethylpyrrolidin-3-yl)ethynyl)quinazolin-6-yl)-4-morpholinobut-2-enamide]

SMILES | IC50 (HER2 YVMA) | IC50 (EGFR wt) | IC50 (HER2 S310F) | IC50 (EGFR V3)
C=CC(=O)Nc1cc2c(Nc3cccc(Cl)c3F)ncnc2cc1C#CC12CCN(CC1)CC2 [Compound 17, N-(4-((3-chloro-2-fluorophenyl)amino)-7-(quinuclidin-4-ylethynyl)-quinazolin-6-yl)acrylamide] | 100 to 500 nM | ≤ 50 nM | 100 to 500 nM | ≤ 50 nM
